Source: patent US8017775B2, “1-2-dihydroquinoline derivative having glucocorticoid receptor binding activity” (Santen Pharmaceutical Co., Ltd., priority 2005, dated 2011)

target: T1, Recombinant human GR (Homo sapiens, UniProt P04150); assay: GR competitor assay by fluorescence polarization (GR binding ratio); details: positive control 2 mM dexamethasone, a GR binding ratio of 100% or more is indicated by 100%
T1 construct: purchased Invitrogen P2816
T1 sequence (P04150 1-777): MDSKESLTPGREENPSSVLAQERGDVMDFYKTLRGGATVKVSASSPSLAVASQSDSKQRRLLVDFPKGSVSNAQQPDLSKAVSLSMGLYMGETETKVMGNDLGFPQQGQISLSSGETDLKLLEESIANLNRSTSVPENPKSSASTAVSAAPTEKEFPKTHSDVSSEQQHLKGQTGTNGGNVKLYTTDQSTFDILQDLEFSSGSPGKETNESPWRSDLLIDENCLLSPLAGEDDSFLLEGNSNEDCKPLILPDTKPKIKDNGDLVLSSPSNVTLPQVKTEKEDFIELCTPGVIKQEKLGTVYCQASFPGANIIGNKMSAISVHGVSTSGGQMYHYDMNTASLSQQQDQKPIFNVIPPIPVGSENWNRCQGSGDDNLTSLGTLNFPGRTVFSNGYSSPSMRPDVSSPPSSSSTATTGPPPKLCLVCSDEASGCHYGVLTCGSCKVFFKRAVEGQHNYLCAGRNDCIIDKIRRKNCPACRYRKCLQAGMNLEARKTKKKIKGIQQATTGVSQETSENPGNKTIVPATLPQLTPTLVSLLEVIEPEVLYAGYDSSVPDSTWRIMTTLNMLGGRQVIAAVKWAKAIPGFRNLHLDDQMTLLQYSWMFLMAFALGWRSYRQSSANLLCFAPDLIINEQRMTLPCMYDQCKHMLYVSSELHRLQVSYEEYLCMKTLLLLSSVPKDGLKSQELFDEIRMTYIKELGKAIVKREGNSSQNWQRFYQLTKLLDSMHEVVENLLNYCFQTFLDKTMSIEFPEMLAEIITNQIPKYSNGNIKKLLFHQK
Method: 1. Evaluation Test for Binding Activity to Glucocorticoid Receptor (hereinafter referred to as “GR”)
In order to evaluate a binding activity to GR, a receptor competitor assay was carried out by a fluorescence polarization method. In the assay, a GR competitor assay kit (manufactured by Invitrogen, cat No. P2816) was used, and a procedure was carried out according to the protocol attached to the kit. Hereinafter, the specific method will be described.
GR screening buffer: A buffer containing 10 mM potassium phosphate (pH 7.4), 20 mM sodium molybdate (Na2MoO4), 0.1 mM ethylene diamine tetraacetic acid (EDTA), 5 mM dithiothreitol (DTT), 0.1 mM stabilizing peptide and 2% dimethylsulfoxide was prepared.
4×GS1 solution: Fluormone™ GS1, which is a fluorescent glucocorticoid ligand, was diluted with GR screening buffer, whereby a 4 nM solution was prepared.
4×GR solution: Recombinant human GR was diluted with GR screening buffer, whereby a 16 nM solution was prepared.
After a test compound was dissolved in dimethylsulfoxide, the resulting solution was diluted with GR screening buffer, whereby a 20 μM test compound solution was prepared.
1) The test compound solution was added in an amount of 25 μL or 10 μL into each well of a 96-well or 384-well plate, and then, 4×GS1 solution and 4×GR solution were added in an amount of 12.5 μL or 5 μL into each well, respectively.
2) The plate was incubated in a dark place at room temperature for 2 to 4 hours.
3) By using a multimode plate reader, Analyst™ HT (manufactured by LJL Biosystems), fluorescence polarization of each well was measured. As the blank, a well containing GR screening buffer in place of the test compound and 4×GS1 solution was used.
4) The same procedure as that in the above 1) to 3) was carried out except that GR screening buffer was used in place of the test compound solution, and the obtained result was taken as the negative control.
5) The same procedure as that in the above 1) to 3) was carried out except that 2 mM dexamethasone was used in place of the test compound solution, and the obtained result was taken as the positive control.
A GR binding ratio (%) was calculated from the following equation.
GR binding ratio (%)=100×[1−(fluorescence polarization of test compound solution−fluorescence polarization of positive control solution)/(fluorescence polarization of negative control solution−fluorescence polarization of positive control solution)]

Row | Compound | GR Binding ratio (%)
1 | COc1cc(O)ccc1-c1ccc2c(c1COc1cc(F)ccc1C)C(C)=CC(C)(C)N2 [Compound 5-3, 5-(5-Fluoro-2-methylphenoxymethyl)-6-(4-hydroxy-2-methoxyphenyl)-2,2,4-trimethyl-1,2-dihydroquinoline] | ≥ 100%
2 | COc1ccc(O)cc1-c1ccc2c(c1COc1cc(F)ccc1C)C(C)=CC(C)(C)N2 [Compound 5-4, 5-(5-Fluoro-2-methylphenoxymethyl)-6-(5-hydroxy-2-methoxyphenyl)-2,2,4-trimethyl-1,2-dihydroquinoline] | 95%
3 | COc1ccccc1NCc1c(-c2ccc(F)cc2OC)ccc2c1C(C)=CC(C)(C)N2 [Compound 6-20, 6-(4-Fluoro-2-methoxyphenyl)-5-(2-methoxyphenylaminomethyl)-2,2,4-trimethyl-1,2-dihydroquinoline] | ≥ 100%
4 | CCOc1ccccc1NCc1c(-c2ccc(F)cc2OC)ccc2c1C(C)=CC(C)(C)N2 [Compound 6-24, 5-(2-Ethoxyphenylaminomethyl)-6-(4-fluoro-2-methoxyphenyl)-2,2,4-trimethyl-1,2-dihydroquinoline] | ≥ 100%
5 | COc1ccccc1NCc1c(-c2cc(F)c(F)cc2OC)ccc2c1C(C)=CC(C)(C)N2 [Compound 6-27, 6-(4,5-Difluoro-2-methoxyphenyl)-5-(2-methoxyphenylaminomethyl)-2,2,4-trimethyl-1,2-dihydroquinoline] | ≥ 100%
6 | COc1cc(F)ccc1-c1ccc2c(c1CNc1cccc(C)c1)C(C)=CC(C)(C)N2 [Compound 6-36, 6-(4-Fluoro-2-methoxyphenyl)-5-(3-methylphenylaminomethyl)-2,2,4-trimethyl-1,2-dihydroquinoline] | 98%
7 | COc1cc(F)ccc1-c1ccc2c(c1CNc1ccccc1C)C(C)=CC(C)(C)N2 [Compound 6-37, 6-(4-Fluoro-2-methoxyphenyl)-5-(2-methylphenylaminomethyl)-2,2,4-trimethyl-1,2-dihydroquinoline] | ≥ 100%
8 | CCc1cccc(NCc2c(-c3ccc(F)cc3OC)ccc3c2C(C)=CC(C)(C)N3)c1 [Compound 6-40, 5-(3-Ethylphenylaminomethyl)-6-(4-fluoro-2-methoxyphenyl)-2,2,4-trimethyl-1,2-dihydroquinoline] | 99%
9 | COc1ccc(C)cc1NCc1c(-c2ccc(F)cc2OC)ccc2c1C(C)=CC(C)(C)N2 [Compound 6-43, 6-(4-Fluoro-2-methoxyphenyl)-5-(2-methoxy-5-methylphenylaminomethyl)-2,2,4-trimethyl-1,2-dihydroquinoline] | ≥ 100%
10 | CCc1ccccc1NCc1c(-c2ccc(F)cc2OC)ccc2c1C(C)=CC(C)(C)N2 [Compound 6-45, 5-(2-Ethylphenylaminomethyl)-6-(4-fluoro-2-methoxyphenyl)-2,2,4-trimethyl-1,2-dihydroquinoline] | 96%
11 | COc1cc(F)ccc1-c1ccc2c(c1CNc1ccccc1C(C)C)C(C)=CC(C)(C)N2 [Compound 6-47, 6-(4-Fluoro-2-methoxyphenyl)-5-(2-isopropylphenylaminomethyl)-2,2,4-trimethyl-1,2-dihydroquinoline] | ≥ 100%
12 | COc1cc(F)ccc1-c1ccc2c(c1CNc1cc(C)ccc1C)C(C)=CC(C)(C)N2 [Compound 6-53, 5-(2,5-Dimethylphenylaminomethyl)-6-(4-fluoro-2-methoxyphenyl)-2,2,4-trimethyl-1,2-dihydroquinoline] | 95%
13 | COc1cc(F)ccc1-c1ccc2c(c1CNc1cc(F)ccc1C)C(C)=CC(C)(C)N2 [Compound 6-57, 6-(4-Fluoro-2-methoxyphenyl)-5-(5-fluoro-2-methylphenylaminomethyl)-2,2,4-trimethyl-1,2-dihydroquinoline] | ≥ 100%
14 | COc1cc(F)c(F)cc1-c1ccc2c(c1CNc1ccccc1C)C(C)=CC(C)(C)N2 [Compound 6-59, 6-(4,5-Difluoro-2-methoxyphenyl)-5-(2-methylphenylaminomethyl)-2,2,4-trimethyl-1,2-dihydroquinoline] | 96%
15 | COc1ccccc1NCc1c(-c2cc(F)ccc2OC)ccc2c1C(C)=CC(C)(C)N2 [Compound 6-75, 6-(5-Fluoro-2-methoxyphenyl)-5-(2-methoxyphenylaminomethyl)-2,2,4-trimethyl-1,2-dihydroquinoline] | ≥ 100%
16 | COc1ccccc1NCc1c(-c2cc(C)ccc2OC)ccc2c1C(C)=CC(C)(C)N2 [Compound 6-76, 6-(2-Methoxy-5-methylphenyl)-5-(2-methoxyphenylaminomethyl)-2,2,4-trimethyl-1,2-dihydroquinoline] | ≥ 100%
17 | COc1cc(F)ccc1-c1ccc2c(c1CNc1ccccc1CCO)C(C)=CC(C)(C)N2 [Compound 6-77, 6-(4-Fluoro-2-methoxyphenyl)-5-[2-(2-hydroxyethyl)phenylaminomethyl)-2,2,4-trimethyl-1,2-dihydroquinoline] | ≥ 100%
18 | COc1ccc(F)cc1-c1ccc2c(c1CNc1cc(F)ccc1C)C(C)=CC(C)(C)N2 [Compound 6-78, 6-(5-Fluoro-2-methoxyphenyl)-5-(5-fluoro-2-methylphenylaminomethyl)-2,2,4-trimethyl-1,2-dihydroquinoline] | ≥ 100%
19 | COc1ccc(C(F)(F)F)cc1-c1ccc2c(c1CNc1cc(F)ccc1C)C(C)=CC(C)(C)N2 [Compound 6-79, 5-(5-Fluoro-2-methylphenylaminomethyl)-6-(2-methoxy-5-trifluoromethylphenyl)-2,2,4-trimethyl-1,2-dihydroquinoline] | ≥ 100%
20 | COc1cc(F)ccc1-c1ccc2c(c1COC(=O)c1sccc1Cl)C(C)=CC(C)(C)N2 [Compound 12-17, 5-[(3-Chlorothiophen-2-yl)carbonyloxymethyl]-6-(4-fluoro-2-methoxyphenyl)-2,2,4-trimethyl-1,2-dihydroquinoline] | ≥ 100%
21 | COc1cc(F)ccc1-c1ccc2c(c1COC(=O)c1ccc(C)s1)C(C)=CC(C)(C)N2 [Compound 12-19, 6-(4-Fluoro-2-methoxyphenyl)-5-[(5-methylthiophen-2-yl)carbonyloxymethyl]-2,2,4-trimethyl-1,2-dihydroquinoline] | ≥ 100%
22 | CCc1ccc(C(=O)OCc2c(-c3ccc(F)cc3OC)ccc3c2C(C)=CC(C)(C)N3)s1 [Compound 12-20, 5-[(5-Ethylthiophen-2-yl)carbonyloxymethyl]-6-(4-fluoro-2-methoxyphenyl)-2,2,4-trimethyl-1,2-dihydroquinoline] | ≥ 100%
23 | COc1cc(F)ccc1-c1ccc2c(c1COC(=O)c1cc(C)cs1)C(C)=CC(C)(C)N2 [Compound 12-21, 6-(4-Fluoro-2-methoxyphenyl)-5-[(4-methylthiophen-2-yl)carbonyloxymethyl]-2,2,4-trimethyl-1,2-dihydroquinoline] | ≥ 100%
24 | COc1cc(F)ccc1-c1ccc2c(c1COC(=O)c1ccc(Cl)s1)C(C)=CC(C)(C)N2 [Compound 12-22, 5-[(5-Chlorothiophen-2-yl)carbonyloxymethyl]-6-(4-fluoro-2-methoxyphenyl)-2,2,4-trimethyl-1,2-dihydroquinoline] | ≥ 100%
